Test system: BRAPP
Assay: Example I postemergence foliar-applied, greenhouse, direct seeded rice weeds
Format: in vivo, Brachiaria platyphylla (Griseb.) Nash
Description: Seeds or nutlets of the desired test plant species were planted in a soil matrix prepared by mixing a loam or sandy loam soil (e.g., 28.6 percent silt, 18.8 percent clay, and 52.6 percent sand, with a pH of about 5.8 and an organic matter content of about 1.8 percent) and calcareous grit in an 80 to 20 ratio. The soil matrix was contained in plastic pots with a volume of 1 quart and a surface area of 83.6 square centimeters (cm^2). When required to ensure good germination and healthy plants, a fungicide treatment and/or other chemical or physical treatment was applied. The plants were grown for 8-22 days in a greenhouse with an approximate 14 hr. photoperiod which was maintained at about 29° C. during the day and 26° C. during the night. Nutrients (Peters Excel® 15-5-15 5-Ca 2-Mg and iron chelate) were applied in the irrigation solution as needed and water was added on a regular basis. Supplemental lighting was provided with overhead metal halide 1000-Watt lamps as necessary. The plants were employed for testing when they reached the first through fourth true leaf stage.
Treatments consisted of the acid or esters of 4-amino-3-chloro-5-fluoro-6-(4-chloro-2-fluoro-3-methoxy-phenyl)pyridine-2-carboxylic acid (Compound A), each formulated as an SC (suspension concentrate), and various herbicidal components alone and in combination.
Other herbicidal components were applied on an acid equivalent (ae) or active ingredient (ai) basis and included acetyl coA carboxylase (ACCase)-inhibiting herbicides (cyclohexanedione and aryloxyphenoxypropionate chemical classes) cyhalofop-butyl formulated as Clincher® SF (285 gr ai/L EC), diclofop-methyl formulated as Hoelon® 3EC, fenoxaprop-p-ethyl+isoxadifen-ethyl formulated as RiceStar® HT (0.58 lb./gal EC), fenoxaprop-p-ethyl+mefenpyr diethyl formulated as Puma® IEC, metamifop formulated as Metamifop EC, haloxyfop-methyl formulated as Gallant Super®, fluazifop-p-butyl formulated as Fusilade® DX, quizalofop-p-ethyl formulated as Assure® II, profoxydim formulated as Aura® 20EC, clethodim applied as Intensity®, sethoxydim formulated as Poast®, and tralkoxydim formulated as Achieve®.
Treatment requirements were calculated based upon the rates being tested, the concentration of active ingredient or acid equivalent in the formulation, and a 12 mL application volume at a rate of 187 L/ha.
For treatments comprised of formulated compounds, measured amounts of compounds were placed individually in 25 mL glass vials and diluted in a volume of 1.25% (v/v) Agri-Dex® crop oil concentrated to obtain 12× stock solutions. […] Application solutions were prepared by adding an appropriate amount of each stock solution (e.g., 1 mL) and diluted to the appropriate final concentrations with the addition of 10 mL of an aqueous mixture of 1.25% (v/v) crop oil concentrate so that the final spray solutions contained 1.25+/−0.05% (v/v) crop oil concentrate.
All stock solutions and applications solutions were visually inspected for compound compatibility prior to application. Spray solutions were applied to the plant material with an overhead Mandel track sprayer equipped with a 8002E nozzles calibrated to deliver 187 L/ha over an application area of 0.503 m^2 at a spray height of 18 to 20 inches (46 to 50 cm) above average plant canopy height. Control plants were sprayed in the same manner with the solvent blank.
The treated plants and control plants were placed in a greenhouse as described above and watered by sub-irrigation to prevent wash-off of the test compounds. After approximately 3 weeks, the condition of the test plants as compared with that of the untreated plants was determined visually and scored on a scale of 0 to 100 percent where 0 corresponds to no injury or growth inhibition and 100 corresponds to complete kill. […]

SMILES: COc1c(Cl)ccc(-c2nc(C(=O)OCc3ccccc3)c(Cl)c(N)c2F)c1F [Compound A Benzyl Ester, benzyl ester of 4-amino-3-chloro-5-fluoro-6-(4-chloro-2-fluoro-3-methoxy-phenyl)pyridine-2-carboxylic acid]
- Visual Weed Control (%) - 20 DAA BRAPP Obs (4.38 gae/ha): 50%
- Visual Weed Control (%) - 20 DAA BRAPP Obs (8 gae/ha): 70%
- Visual Weed Control (%) - 20 DAA BRAPP Obs (8.75 gae/ha): 70%
- Visual Weed Control (%) - 20 DAA BRAPP Obs (16 gae/ha): 75%
- Visual Weed Control (%) - 20 DAA BRAPP Obs (32 gae/ha): 90%
